Test results published in patent US20260207602A1, “EGFR INHIBITORS” (Blueprint Medicines Corporation, priority 2022, published 2026).

Assays:
[1] = molecular target: intracellular phosphorylation of EGFR (Tyr1068) in PC-9 cells (Homo sapiens, UniProt P00533, DEL746-750); assay: PC-9 pEGFR AlphaLISA assay; type: cell-based; details: 4 hours incubation, read-out: Phos EGFR PC9 IC50
Experimental: PC-9/A431 pEGFR AlphaLISA Assays
Inhibitory effects of compounds were evaluated in cellular assays that measure level of intracellular phosphorylation of EGFR in PC-9 (ECACC, #90071810, Milipore/Sigma) and A431 cell lines (ATCC, CRL-1555) using AlphaLISA sureFire ultra p-EGFR (Tyr1068) assay kit (PerkinElmer, ALSU-PEGFR-A50K). PC-9 cells were seeded at 3.125×10^5 cells/ml in 40 μL phenol-free DMEM supplemented with 10% FBS per well of a 384 well plate (Corning, 3764), while A431 were seeded at […] in 40 μL in phenol-free DMEM with 0.5% FBS. Cells were allowed to adhere overnight at 37° C./5% CO2. On the next day, compounds were transferred at 4-fold, 10-point serial dilution from compound source plate to cell plates using liquid handler Echo550 and were incubated at 37° C./5% CO2 for 4 hours. A431 cells were stimulated prior harvesting for 10 min with EGF at final concentration of 30 ng/ml in the incubator. Medium was removed from the plates and cells were lysed with 10 μL of 1× AlphaLISA lysis buffer (supplemented with 1× protease/phosphatase inhibitor cocktail) followed by shaking at 600 rpm for 30 minutes at room temperature. Lysates were transferred to Optiplate (Apricot designs) and 5 ul of 1× acceptor bead mix (prepared just before use) was added to each well followed by incubation at room temperature for 1.5-2 h in dark. Then 5 μL of freshly-made donor bead mix is added to each well under subdued lighting or green filters, was mixed well on the shaker and the plate was sealed and left for an overnight incubation at room temperature in dark. On the next day, the plate was read the Envision using standard AlphaLisa settings. Percent of pEGFR inhibition was plotted against log concentration of compounds to generate IC50 values.

EGFR L858R = molecular target: T1, EGFR L858R (Homo sapiens, UniProt P00533, L858R); assay: Biochemical EGFR inhibition assay (Caliper mobility shift), EGFR L858R; details: biochemical Caliper mobility shift assay, EGFR L858R enzyme; read-out: Enz EGFR L858R IC50
T1 construct: purchased SignalChem E10-122BG
Experimental: (§1) Inhibitory effects of the compounds of the disclosure were measured in biochemical assays that measure the phosphorylation activity of EGFR enzyme phosphorylates 2.5 micromolar 5-FAM-[…]-CONH2 peptide substrate (ProfilerPro Kinase Peptide Substrate 22, PerkinElmer, Part #760366) in the presence of adenosine-5′-triphosphate (ATP) and varying concentrations of the test compound in 100 mM 2-[4-(2-hydroxyethyl)piperazin-1-yl]ethanesulfonic acid (HEPES), pH 7.5, 10 mM MgCl2, 0.015% Brij-35, 1 mM dithiothreitol (DTT), 1.0% dimehylsulfoxide (DMSO). Assays were performed at 1.0 mM ATP or at ATP Km of the EGFR enzymes. Reactions proceeded until between 10% to 20% total peptides were phosphorylated at room temperature (25° C.) and were terminated with 35 mM 2,2′,2″,2′″-(ethane-1,2-diyldinitrilo)tetraacetic acid (EDTA). Product was detected using the Caliper mobility shift detection method where the phosphorylated peptide (product) and substrate were electrophoretically separated and measured. Percent activity was plotted against log concentration of compound and points to generate an apparent IC50. The following enzyme forms of • EGFR were examples that were used in these assays: • EGFR WT (SignalChem, E10-112G) • EGFR L858R (SignalChem, E10-122BG) • EGFR (d746-750) (SignalChem, E10-122JG) • EGFR L858R C797S (SignalChem, E10-122ZG) • EGFR (d746-750) C797S (SignalChem, E10-122TG)

EGFR (d746-750) = molecular target: T2, EGFR (d746-750) (Homo sapiens, UniProt P00533, DEL746-750); assay: Biochemical EGFR inhibition assay (Caliper mobility shift), EGFR (d746-750); details: biochemical Caliper mobility shift assay, EGFR Exon 19-del enzyme; read-out: Enz EGFR Exon 19-del IC50
T2 construct: purchased SignalChem E10-122JG
Experimental: as §1

T1 sequence (P00533 25-1210 L858R): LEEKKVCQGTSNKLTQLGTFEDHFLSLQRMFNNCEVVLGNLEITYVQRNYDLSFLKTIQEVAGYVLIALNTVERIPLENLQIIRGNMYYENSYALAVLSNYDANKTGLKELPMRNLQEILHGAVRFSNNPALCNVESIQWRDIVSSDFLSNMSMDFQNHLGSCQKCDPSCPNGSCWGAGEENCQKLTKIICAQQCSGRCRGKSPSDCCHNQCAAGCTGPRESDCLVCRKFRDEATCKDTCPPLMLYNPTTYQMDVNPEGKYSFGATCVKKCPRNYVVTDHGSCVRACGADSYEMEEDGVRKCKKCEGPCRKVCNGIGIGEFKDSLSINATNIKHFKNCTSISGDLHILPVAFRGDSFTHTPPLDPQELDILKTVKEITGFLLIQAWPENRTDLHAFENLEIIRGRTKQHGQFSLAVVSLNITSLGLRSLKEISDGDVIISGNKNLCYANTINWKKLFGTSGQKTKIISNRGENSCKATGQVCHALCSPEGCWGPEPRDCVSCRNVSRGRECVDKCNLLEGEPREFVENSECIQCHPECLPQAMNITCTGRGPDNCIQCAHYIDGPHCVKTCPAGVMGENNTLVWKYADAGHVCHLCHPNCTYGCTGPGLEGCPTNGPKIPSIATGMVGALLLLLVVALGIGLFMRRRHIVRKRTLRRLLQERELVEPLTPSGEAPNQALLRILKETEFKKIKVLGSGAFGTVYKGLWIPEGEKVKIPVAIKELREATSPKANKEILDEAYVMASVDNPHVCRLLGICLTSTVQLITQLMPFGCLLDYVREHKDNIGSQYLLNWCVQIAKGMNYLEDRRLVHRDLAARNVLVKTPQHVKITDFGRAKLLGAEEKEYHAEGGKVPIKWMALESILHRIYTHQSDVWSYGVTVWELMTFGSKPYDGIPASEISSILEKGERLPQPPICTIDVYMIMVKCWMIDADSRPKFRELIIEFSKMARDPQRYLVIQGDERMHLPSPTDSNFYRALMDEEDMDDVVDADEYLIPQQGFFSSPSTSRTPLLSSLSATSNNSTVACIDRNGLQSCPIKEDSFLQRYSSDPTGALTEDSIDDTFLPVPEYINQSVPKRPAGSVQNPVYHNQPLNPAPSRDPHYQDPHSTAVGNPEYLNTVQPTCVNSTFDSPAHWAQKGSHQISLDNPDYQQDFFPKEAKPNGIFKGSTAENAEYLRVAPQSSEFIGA
T2 sequence (P00533 with tags, fused parts or gaps DEL746-750 limits assumed): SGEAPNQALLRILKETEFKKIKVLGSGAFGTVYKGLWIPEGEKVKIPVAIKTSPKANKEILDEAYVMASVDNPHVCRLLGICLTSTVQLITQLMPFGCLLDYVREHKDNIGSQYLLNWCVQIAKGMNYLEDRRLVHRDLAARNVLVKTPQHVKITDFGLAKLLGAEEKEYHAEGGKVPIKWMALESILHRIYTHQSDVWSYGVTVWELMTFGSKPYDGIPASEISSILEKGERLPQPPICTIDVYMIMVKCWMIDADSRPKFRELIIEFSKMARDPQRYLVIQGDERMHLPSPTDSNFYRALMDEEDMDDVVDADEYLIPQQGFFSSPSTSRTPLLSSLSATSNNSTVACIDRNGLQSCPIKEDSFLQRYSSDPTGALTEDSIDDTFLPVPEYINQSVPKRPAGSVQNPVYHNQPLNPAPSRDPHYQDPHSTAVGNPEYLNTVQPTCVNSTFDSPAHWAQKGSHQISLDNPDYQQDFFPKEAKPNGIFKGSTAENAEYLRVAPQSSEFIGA
intracellular phosphorylation of EGFR (Tyr1068) in PC-9 cells, sequence (P00533 with tags, fused parts or gaps DEL746-750): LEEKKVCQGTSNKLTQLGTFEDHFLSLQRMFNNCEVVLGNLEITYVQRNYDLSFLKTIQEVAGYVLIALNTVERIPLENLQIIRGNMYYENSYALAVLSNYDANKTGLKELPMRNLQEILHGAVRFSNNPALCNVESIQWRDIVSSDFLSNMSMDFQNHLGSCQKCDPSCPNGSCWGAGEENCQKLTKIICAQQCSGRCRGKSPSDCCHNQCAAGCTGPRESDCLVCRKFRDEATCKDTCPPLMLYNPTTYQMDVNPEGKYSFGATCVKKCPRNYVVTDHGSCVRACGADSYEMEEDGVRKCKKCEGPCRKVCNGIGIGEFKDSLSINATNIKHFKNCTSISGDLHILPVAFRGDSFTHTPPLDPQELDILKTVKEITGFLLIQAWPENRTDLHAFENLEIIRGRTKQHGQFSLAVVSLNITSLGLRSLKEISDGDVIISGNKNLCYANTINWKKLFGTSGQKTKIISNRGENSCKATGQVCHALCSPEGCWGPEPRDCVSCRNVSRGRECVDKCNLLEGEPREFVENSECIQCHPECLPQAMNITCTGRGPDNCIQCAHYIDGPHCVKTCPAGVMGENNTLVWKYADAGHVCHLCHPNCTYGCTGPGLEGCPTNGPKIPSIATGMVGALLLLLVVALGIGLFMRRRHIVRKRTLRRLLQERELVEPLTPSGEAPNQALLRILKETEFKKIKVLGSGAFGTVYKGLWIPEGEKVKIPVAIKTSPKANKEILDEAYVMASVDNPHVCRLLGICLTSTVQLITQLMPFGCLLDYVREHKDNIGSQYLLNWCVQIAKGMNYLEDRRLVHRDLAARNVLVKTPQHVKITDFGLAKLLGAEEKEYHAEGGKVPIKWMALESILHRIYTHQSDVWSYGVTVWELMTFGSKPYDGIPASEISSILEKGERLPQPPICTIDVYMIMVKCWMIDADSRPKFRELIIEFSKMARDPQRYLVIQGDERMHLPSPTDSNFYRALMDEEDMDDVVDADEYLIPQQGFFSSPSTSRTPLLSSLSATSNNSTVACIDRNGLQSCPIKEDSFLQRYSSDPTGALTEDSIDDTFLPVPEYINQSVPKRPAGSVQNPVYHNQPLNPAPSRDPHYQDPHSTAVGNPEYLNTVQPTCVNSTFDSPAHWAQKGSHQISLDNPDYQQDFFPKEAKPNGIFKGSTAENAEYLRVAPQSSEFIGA

| SMILES | IC50 [1] [nM] | IC50 (EGFR L858R) [nM] | IC50 (EGFR (d746-750)) [nM] |
| --- | --- | --- | --- |
| COc1nn(C)cc1-c1cc(O[C@@H]2CCN(C)C[C@H]2F)c2c(Nc3ccc4ncsc4c3F)ncnc2c1 [Example 351, 7-fluoro-N-(5-(((3R,4R)-3-fluoro-1-methylpiperidin-4-yl)oxy)-7-(3-methoxy-1-methyl-1H-pyrazol-4-yl)quinazolin-4-yl)benzo[d]thiazol-6-amine] | ≤ 10 | ≤ 10 | ≤ 10 |
| Cn1cc(-c2cc(O[C@H]3CNC[C@@H]3F)c3c(Nc4ccc5ncsc5c4)ncnc3c2)cn1 [Example 382, N-(5-(((3S,4S)-4-fluoropyrrolidin-3-yl)oxy)-7-(1-methyl-1H-pyrazol-4-yl)quinazolin-4-yl)benzo[d]thiazol-6-amine] | > 50.1 | 10.1 to 50 | ≤ 10 |
| COC[C@H](CN(C)C)Oc1cc(-c2cnn(C)c2)cc2ncnc(Nc3ccc4ncsc4c3)c12 [Example 141, (S)-N-(5-((1-(dimethylamino)-3-methoxypropan-2-yl)oxy)-7-(1-methyl-1H-pyrazol-4-yl)quinazolin-4-yl)benzo[d]thiazol-6-amine] | 10.1 to 50 | 10.1 to 50 | ≤ 10 |
| COc1nn(C)cc1-c1cc(O[C@@H]2CCN(C)C[C@H]2F)c2c(Nc3ccc4ncsc4c3)ncnc2c1 (single isomer, unassigned) [Example 359] | 10.1 to 50 | ≤ 10 | ≤ 10 |
| COc1nn(C)cc1-c1cc(O[C@H]2CN(C)C[C@H]2F)c2c(Nc3ccc4ncsc4c3)ncnc2c1 (single isomer, unassigned) [Example 373] | ≤ 10 | ≤ 10 | ≤ 10 |
| COC[C@@H](C)Oc1cc(-n2cc(C(C)(C)O)cn2)cc2ncnc(Nc3ccc4ncsc4c3F)c12 [Example A26, (R)-2-(1-(4-((7-fluorobenzo[d]thiazol-6-yl)amino)-5-((1-methoxypropan-2-yl)oxy)quinazolin-7-yl)-1H-pyrazol-4-yl)propan-2-ol] | ≤ 10 | ≤ 10 | ≤ 10 |
| C[C@@H](Oc1cc(-c2cnn(C)c2)cc2ncnc(Nc3ccc4ncsc4c3)c12)C1CN(C)C1 (single isomer, unassigned) [Example 385] | ≤ 10 | ≤ 10 | ≤ 10 |
| Cn1cc(-c2cc(O[C@H]3COC[C@@H]3O)c3c(Nc4ccc5ncsc5c4)ncnc3c2)cn1 (single isomer, unassigned) [Example A29] | 10.1 to 50 | ≤ 10 | ≤ 10 |
| Cn1cc(-c2cc(O[C@@H]3CNC[C@H](F)C3)c3c(Nc4ccc5ncsc5c4)ncnc3c2)cn1 (single isomer, unassigned) [Example 334] | 10.1 to 50 | ≤ 10 | ≤ 10 |
| COc1nn(C)cc1-c1cc(O[C@H]2CCN(C)C2=O)c2c(Nc3ccc4ncsc4c3)ncnc2c1 (single isomer, unassigned) [Example 75] | ≤ 10 | ≤ 10 | ≤ 10 |
| C[C@H](Oc1cc(-c2cnn(C)c2)cc2ncnc(Nc3ccc4ncsc4c3)c12)C(=O)N1CCOCC1 [Example 284, (S)-2-((4-(benzo[d]thiazol-6-ylamino)-7-(1-methyl-1H-pyrazol-4-yl)quinazolin-5-yl)oxy)-1-morpholinopropan-1-one] | ≤ 10 | ≤ 10 | ≤ 10 |
| Cc1ccnn1-c1cc(OC2CCOCC2)c2c(Nc3ccc4ncsc4c3)ncnc2c1 [Example 135, N-(7-(5-methyl-1H-pyrazol-1-yl)-5-((tetrahydro-2H-pyran-4-yl)oxy)quinazolin-4-yl)benzo[d]thiazol-6-amine] | > 50.1 | 10.1 to 50 | 10.1 to 50 |
| CO[C@@H]1CNCC[C@H]1Oc1cc(-c2cnn(C)c2)cc2ncnc(Nc3ccc4ncsc4c3)c12 (single isomer, unassigned) [Example A41] | 10.1 to 50 | ≤ 10 | ≤ 10 |
| CC(Oc1cc(-c2cnn(C)c2)cc2ncnc(Nc3ccc4ncsc4c3)c12)C(F)F (racemic) [Example 51, (rac)-N-(5-((1,1-difluoropropan-2-yl)oxy)-7-(1-methyl-1H-pyrazol-4-yl)quinazolin-4-yl)benzo[d]thiazol-6-amine] | ≤ 10 | ≤ 10 | ≤ 10 |
| COCC[C@@H](C)Oc1cc(-c2cnn(C)c2)cc2ncnc(Nc3ccc4ncsc4c3F)c12 (single isomer, unassigned) [Example 108] | ≤ 10 | ≤ 10 | ≤ 10 |
| CN1CCC(Nc2cc3c(Nc4ccc5ncsc5c4)ncnc3cc2-c2ccn(C)n2)CC1 [Example 258, N4-(benzo[d]thiazol-6-yl)-7-(1-methyl-1H-pyrazol-3-yl)-N6-(1-methylpiperidin-4-yl)quinazoline-4,6-diamine] | ≤ 10 | ≤ 10 | ≤ 10 |
| COCCN1CCC(Oc2cc(-c3nn(C)cc3OC)cc3ncnc(Nc4ccc5ncsc5c4)c23)CC1 [Example 308, N-(7-(4-methoxy-1-methyl-1H-pyrazol-3-yl)-5-((1-(2-methoxyethyl)piperidin-4-yl)oxy)quinazolin-4-yl)benzo[d]thiazol-6-amine] | 10.1 to 50 | 10.1 to 50 | ≤ 10 |
| C[C@@H](Oc1cc(-c2cnn(C)c2)cc2ncnc(Nc3ccc4ncsc4c3F)c12)C(=O)N(C)C (single isomer, unassigned) [Example 279] | ≤ 10 | ≤ 10 | ≤ 10 |
| C[C@@H](Oc1cc(-c2cnn(C)c2)cc2ncnc(Nc3ccc4ncsc4c3F)c12)C1CCOCC1 (single isomer, unassigned) [Example 111] | ≤ 10 | ≤ 10 | ≤ 10 |
| C[C@@H](Oc1cc(-c2cnn(C)c2)cc2ncnc(Nc3ccc4ncsc4c3)c12)C(=O)N1CCOCC1 [Example 285, (R)-2-((4-(benzo[d]thiazol-6-ylamino)-7-(1-methyl-1H-pyrazol-4-yl)quinazolin-5-yl)oxy)-1-morpholinopropan-1-one] | ≤ 10 | ≤ 10 | ≤ 10 |
| Cn1cc(-c2cc(OCC(F)(F)F)c3c(Nc4ccc5ncsc5c4)ncnc3c2)cn1 [Example 50, N-(7-(1-methyl-1H-pyrazol-4-yl)-5-(2,2,2-trifluoroethoxy)quinazolin-4-yl)benzo[d]thiazol-6-amine] | 10.1 to 50 | ≤ 10 | ≤ 10 |
| COc1nn(C)cc1-c1cc(OC2CCN(CC(F)F)CC2)c2c(Nc3ccc4ncsc4c3)ncnc2c1 [Example 386, N-(5-((1-(2,2-difluoroethyl)piperidin-4-yl)oxy)-7-(3-methoxy-1-methyl-1H-pyrazol-4-yl)quinazolin-4-yl)benzo[d]thiazol-6-amine] | ≤ 10 | ≤ 10 | ≤ 10 |
| CN1CC[C@@](C)(COc2cc(-c3cnn(C)c3)cc3ncnc(Nc4ccc5ncsc5c4)c23)C1=O (single isomer, unassigned) [Example 55] | 10.1 to 50 | ≤ 10 | ≤ 10 |
| COc1nn(C)cc1-c1cc(O[C@H]2CCN(C)C2=O)c2c(Nc3ccc4ncsc4c3)ncnc2c1 (single isomer, unassigned) [Example 74] | 10.1 to 50 | ≤ 10 | ≤ 10 |
| CN1CCC(Oc2cc(-c3cnn(C)c3)cc3ncnc(Nc4ccc5scnc5c4)c23)CC1 [Example A03, N-(7-(1-methyl-1H-pyrazol-4-yl)-5-((1-methylpiperidin-4-yl)oxy)quinazolin-4-yl)benzo[d]thiazol-5-amine] | 10.1 to 50 | 10.1 to 50 | ≤ 10 |
